In US6770645B2, “Pharmaceutically active compounds” (Pfizer Inc., priority 2001, dated 2004):
pIC50: −log10 of the molar value. Where two headings read alike, the source gives them in different places.

Experiments:
[1] = In vitro metabolism: human liver microsome (HLM) half-life; assay type: in vitro ADME; conditions: human liver microsomes, pH 7.4, human liver microsomes, bound stated, read-out: HLM half-lifes
Procedure: In vitro metabolism experiments were carried out in the hepatic microsomal fractions from man. Transplant-quality human liver tissue was obtained from the International Institute for the Advancement of Medicine (Exton, Pa., USA). Microsomes were prepared according to the method described in Biochemical Pharmacology, […], 48, 2147-2156 and stored at −80° C. The concentrations of protein and cytochrome P450 were determined by standard methods described in Journal of Biological Chemistry, 1951, 193, 265-275 and Journal of Biological Chemistry, 1964, 239, 2370-2378.
Microsomal incubations (1.5 ml) were prepared containing 0.5 μM cytochrome P450, 200 mM phosphate buffer (pH 7.4), 0.1 M MgCl2, 0.1 M isocitric acid, 1 unit/ml isocitrate dehydrogenase and 20 mM β-NADP. Compounds under study were added after a 5 min preincubation at 37° C. to give an initial substrate concentration of 1 μM. The mixture was incubated at 37° C. and samples (100 μl) were removed for analysis for up to 60 min. Metabolism in samples was terminated by the addition of NaOH (0.1 M) containing an internal standard (chosen to have similar physicochemical properties to compounds under study), followed by extraction into ethyl acetate (2 ml). The extracts were evaporated to dryness and analysed by LC-MS/MS (Hewlett Packard HP1100 binary pump, Hypersil HS100 C18, 5 cm by 4.6 mm internal diameter, 5 μm column using a mobile phase of 2 mM ammonium acetate in 90:10 methanol/water, aqueous portion adjusted to pH 4 with glacial acetic acid, and a flowrate of 1 ml/min). The mass spectrometer was a Sciex API 2000 with TurbolonSpray interface using a positive ion multiple reaction monitoring (MRM) detection mode. Nitrogen was used as curtain, nebuliser, TurbolonSpray and collision gases, and the TurbolonSpray temperature was 100° C. Typical voltages were as follows: IS=5.2 kV; RNG=380 V; Q0=−10 V; IQ1=−11 V; ST=−15;RO1=−11 V; MU=gain adjusted as per Sciex user manual. Collision energy was 55 eV for high MRM, OR=65 V. Dwell time was 200 msec with a 50 msec pause. Data was acquired using MSExpress v 1.1 and processed using Macquan 1.5 (PE Sciex)). Disappearance rate constants (k) in human microsomal preparations were determined by linear regression of the log ratio (compound under study/internal standard) versus time. The in vitro human microsomal half-lives were determined according to the equation […]=In 2/k.

cGMP PDE5 = biological target: T1, cGMP PDE5 (Homo sapiens, UniProt O76074); assay: In vitro cGMP PDE5 inhibitory activity (IC50); assay type: biochemical
T1 construct: The required PDE enzymes were isolated from a variety of sources, including human corpus cavernosum, human platelets; from tissue; host or cells: human corpus cavernosum tissue or human platelets
Procedure: The compounds of the present invention are potent and selective cGMP PDE5 inhibitors. In vitro PDE inhibitory activities against cyclic guanosine 3′,5′-monophosphate (cGMP) and cyclic adenosine 3′,5′-monophosphate (cAMP) phosphodiesterases were determined by measurement of their IC50 values (the concentration of compound required for 50% inhibition of enzyme activity).
The required PDE enzymes were isolated from a variety of sources, including human corpus cavernosum, human platelets, human cardiac ventricle, human skeletal muscle and human and canine retina, essentially by the method of W. J. Thompson and M. M. Appleman (Biochem., 1971, 10, 311). In particular, the cGMP-specific PDE (PDE5) and the cGMP-inhibited cAMP PDE (PDE3) were obtained from human corpus cavernosum tissue or human platelets; the cGMP-stimulated PDE (PDE2) was obtained from human corpus cavernosum or human platelets; the calcium/calmodulin (Ca/CAM)-dependent PDE (PDE1) from human cardiac ventricle; the cAMP-specific PDE (PDE4) from recombinant clone or human skeletal muscle; and the photoreceptor PDE (PDE6) from canine or human retina. Phosphodiesterases 7-11 were generated from full length human recombinant clones transfected into SF9 cells.
Assays were performed either using a modification of the “batch” method of W. J. Thompson et al. (Biochem., 1979, 18, 5228) or using a scintillation proximity assay for the direct detection of AMP/GMP using a modification of the protocol described by Amersham pic under product code TRKQ7090/7100. In summary, the effect of PDE inhibitors was investigated by assaying a fixed amount of enzyme in the presence of varying inhibitor concentrations and low substrate, (cGMP or cAMP in a 3:1 ratio unlabelled to [^3H]-labeled at a conc ˜½ Km) such that IC50 ≅Ki. The final assay volume was made up to 102 μl with assay buffer [20 mM Tris-HCl pH 7.4, 5 mM MgCl2, 1 mg/ml bovine serum albumin]. Reactions were initiated with enzyme, incubated for 30-60 min at 30° C. to give <30% substrate turnover and terminated with 50 μl yttrium silicate SPA beads (containing 3 mM of the respective unlabelled cyclic nucleotide for PDEs 3, 9 and 11). Plates were resealed and shaken for 20 min, after which the beads were allowed to settle for 30 min in the dark and then counted on a TopCount plate reader (Packard, Meriden, Conn.). Radioactivity units were converted to % activity of an uninhibited control (100%), plotted against inhibitor concentration and inhibitor IC50 values obtained using the ‘Fit Curve’ Microsoft Excel extension or inhouse equivalent.

[2] = bounds for groups of Examples, read-out: IC50 values for the PDE5 enzyme
[3] = in vitro cGMP PDE5 inhibitory activity, Table 1, read-out: IC50

Row | Structure (SMILES) | melting point | half-life at 1 μM [1] | pIC50 (cGMP PDE5; [2]) | pIC50 (cGMP PDE5; [3])
1 | CCCOc1ccc(S(C)(=O)=O)cc1-c1nc2c(CC)nn(C[C@@H]3CCCN3C)c2c(=O)[nH]1 [Example 18, 3-Ethyl-1-{[(2S)-1-methylpyrrolidinyl]methyl}-5-[5-(methylsulfonyl)-2-propoxyphenyl]-1,6-dihydro-7H-pyrazolo[4,3-d]pyrimidin-7-one] | 211 to 215 °C | ≥ 30 min | > 8.00 | 8.27
2 | CCCCOc1ccc(S(C)(=O)=O)cc1-c1nc2c(CC)n(C3CN(C(C)C)C3)nc2c(=O)[nH]1 [Example 19, 5-[2-Butoxy-5-(methylsulfonyl)phenyl]-3-ethyl-2-(1-isopropyl-3-azetidinyl)-2,6-dihydro-7H-pyrazolo[4,3-d]pyrimidin-7-one] | 209 to 213 °C | ≥ 30 min | > 8.00 | 8.18
